Test results reported in US20190308963A1, “HETEROCYCLIC COMPOUNDS AND USES THEREOF” (priority 2018, published 2019).

Experiments:
PI3Kδ (p110δ/p85α) = PI3Kδ (p110δ/p85α) (Homo sapiens, UniProt O00329); assay: cell-free PI3K HTRF assay, PI3Kδ
Description: (§4) Exemplary compounds of the invention were tested for inhibitory activity or potency against class I PI3Ks (p110α/p85α, p110β/p85α, p110δ/p85α and p110γ) using a cell-free based PI3K HTRF assay. This assay was used to detect the formation of the product 3,4,5-inositol triphosphate molecule (PIP3) by displacement of biotin-PIP3 from an energy transfer complex consisting of Europium labeled anti-GST monoclonal antibody, a GST-tagged pleckstrin homology (PH) domain, biotinylated PIP3 and Streptavidin-Allophycocyanin (APC). […] The PIP3 product formed by human PI3-Kinase activity displaces biotin-PIP3 from the complex resulting in a loss of energy transfer and thus a decrease in signal.
(§5) Human class I PI3K isoforms were co-expressed in a Baculovirus infected cell expression system. The PI3K isoforms were assayed in the presence of HEPES (50 mM, pH 7.0), NaN3 (0.02%), BSA (0.01%), orthovanadate (0.1 mM), and DMSO (1%). The exemplary compounds dissolved in DMSO were delivered into the kinase reaction mixture by Acoustic technology (Echo550; nanolitter range), and were pre-incubated for 10 min at room temperature before adding ATP (10 μM) to initiate the reaction. […] The emission ratio is converted into μM PIP3 production based on PIP3 standard curves, and the nonlinear regression to obtain the standard curve and IC50 values are performed using Graphpad Prism software.

BRD4 (BD1) = target: T1, BRD4 (BD1) (Homo sapiens, UniProt O60885); assay: AlphaScreen FRET binding assay, BRD4 (BD1); details: read-out: IC50 value for the inhibition of BRD4 (BD1)
T1 construct: recombinant human BRD4 (BD1; aa 44-170); purchased Reaction Biology Corporation (contract assay service); host or cells: E. coli
Description: (§1) Exemplary compounds of the invention were tested for inhibitory activity or potency against BRD4 (BD1) and BRD4 (BD2) using AlphaScreen FRET binding assay, and exemplary compounds of the invention were further tested for inhibitory activity or potency against class I PI3Ks (p110α/p85α, p110β/p85α, p110δ/p85α and p110γ) using a cell-free based .P13K HTRF assay. All assays were performed at Reaction Biology Corporation, One Great Valley Parkway, Suite 2, Malvem, Pa.
(§2) Exemplary compounds of the invention were tested for inhibitory activity or potency against BRD4 (BD1) and BRD4 (BD2) using AlphaScreen FRET binding assay. […] Briefly, donor beads coated with streptavidin were incubated with biotinylated histone H4 peptide (residues 1-21) containing KAc (K5/^8/12/16Ac). In the absence of inhibitor, the. His-tagged reader domain of BRD4 binds to KAc-histone H4 peptide, thereby recruiting acceptor beads coated with a nickel chelator. Binding potential is assessed by detecting light emission (520-620 nm) from acceptor beads following laser excitation (680 nm) of a photosensitizer within the donor beads that converts ambient oxygen to singlet oxygen.
(§3) All IC50 values were reported in unites of nM.

class I PI3Ks = assay: summary in words of the class I PI3K (and BRD4) results; type: biochemical, human; details: for activity against PI3K in words: novel BRD inhibitors without PI3K activity; for overall activity in words (class I PI3Ks and BRD4): against both divergent targets
Description: Exemplary compounds of the invention were tested for inhibitory activity or potency against class I PI3Ks (p110α/p85α, p110β/p85α, p110δ/p85α and p110γ) using a cell-free based PI3K HTRF assay. This assay was used to detect the formation of the product 3,4,5-inositol triphosphate molecule (PIP3) by displacement of biotin-PIP3 from an energy transfer complex consisting of Europium labeled anti-GST monoclonal antibody, a GST-tagged pleckstrin homology (PH) domain, biotinylated PIP3 and Streptavidin-Allophycocyanin (APC). Excitation of Europium in the complex results in an energy transfer to the APC and a fluorescent emission at 665 nm. The PIP3 product formed by human PI3-Kinase activity displaces biotin-PIP3 from the complex resulting in a loss of energy transfer and thus a decrease in signal.
Human class I PI3K isoforms were co-expressed in a Baculovirus infected cell expression system. The PI3K isoforms were assayed in the presence of HEPES (50 mM, pH 7.0), NaN3 (0.02%), BSA (0.01%), orthovanadate (0.1 mM), and DMSO (1%). The exemplary compounds dissolved in DMSO were delivered into the kinase reaction mixture by Acoustic technology (Echo550; nanolitter range), and were pre-incubated for 10 min at room temperature before adding ATP (10 μM) to initiate the reaction. After 30 min at 30° C., the reactions were quenched with a stop solution, incubated overnight with a detection mixture before measuring HTRF (Ex: 320 nm; Em: 615/665 nm). The emission ratio is converted into μM PIP3 production based on PIP3 standard curves, and the nonlinear regression to obtain the standard curve and IC50 values are performed using Graphpad Prism software.
All IC50 values were reported in unites of nM. Empty cells indicate no inhibition or compound activity that could not be fit to an IC50 curve.
Dual inhibitors of class I PI3Ks and BRD4 are rare because class I PI3Ks and BRD4 are two structurally and functionally unrelated targets. […] The unexpected dual inhibitory activity or potency against both divergent targets is attributed to not only the unusual overall shape of the molecules of the present invention (as described in U.S. Pat. No. 9,637,488), but also the specific KAc-mimicking groups selected and their position incorporated into the quinoline ring.

BRD4 (BD2) = target: T2, BRD4 (BD2) (Homo sapiens, UniProt O60885); assay: AlphaScreen FRET binding assay, BRD4 (BD2); details: read-out: IC50 value for the inhibition of BRD4 (BD2)
T2 construct: recombinant human BRD4 (BD2; aa 349-460); purchased Reaction Biology Corporation (contract assay service); host or cells: E. coli
Description: as §1, §2, §3

PI3Kγ (p110γ) = PI3Kγ (p110γ) (Homo sapiens, UniProt P48736); assay: cell-free PI3K HTRF assay, PI3Kγ
PI3Kγ (p110γ), sequence (P48736 whole entry): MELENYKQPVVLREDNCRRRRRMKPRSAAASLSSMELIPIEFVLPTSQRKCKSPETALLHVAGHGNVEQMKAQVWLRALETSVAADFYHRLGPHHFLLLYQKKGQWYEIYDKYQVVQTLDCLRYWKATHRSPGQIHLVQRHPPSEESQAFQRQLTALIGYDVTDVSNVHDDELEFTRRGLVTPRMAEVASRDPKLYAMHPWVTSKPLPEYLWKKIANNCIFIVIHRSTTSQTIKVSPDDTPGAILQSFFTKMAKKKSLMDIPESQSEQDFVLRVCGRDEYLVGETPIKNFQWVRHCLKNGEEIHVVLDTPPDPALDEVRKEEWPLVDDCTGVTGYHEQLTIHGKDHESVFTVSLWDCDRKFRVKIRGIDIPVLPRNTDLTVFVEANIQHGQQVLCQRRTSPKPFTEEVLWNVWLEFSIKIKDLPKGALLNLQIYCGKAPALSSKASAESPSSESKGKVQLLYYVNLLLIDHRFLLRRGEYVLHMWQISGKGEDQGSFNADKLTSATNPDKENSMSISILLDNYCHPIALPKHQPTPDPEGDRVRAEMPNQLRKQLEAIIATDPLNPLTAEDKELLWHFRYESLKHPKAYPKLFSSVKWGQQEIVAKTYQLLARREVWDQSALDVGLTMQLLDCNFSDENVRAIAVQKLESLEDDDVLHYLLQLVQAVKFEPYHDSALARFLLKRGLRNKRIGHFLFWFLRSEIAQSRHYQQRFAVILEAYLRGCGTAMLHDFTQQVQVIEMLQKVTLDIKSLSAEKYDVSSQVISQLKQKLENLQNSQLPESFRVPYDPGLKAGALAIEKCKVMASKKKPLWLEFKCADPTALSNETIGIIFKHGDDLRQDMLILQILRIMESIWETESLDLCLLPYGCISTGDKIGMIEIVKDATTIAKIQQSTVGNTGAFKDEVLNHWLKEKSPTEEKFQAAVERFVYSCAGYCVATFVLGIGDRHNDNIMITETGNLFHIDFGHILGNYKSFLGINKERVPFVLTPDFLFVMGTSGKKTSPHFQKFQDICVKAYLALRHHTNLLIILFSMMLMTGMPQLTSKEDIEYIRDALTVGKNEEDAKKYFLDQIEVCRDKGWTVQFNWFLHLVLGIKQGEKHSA
Description: as §4, §5

PI3Kβ (p110β/p85α) = PI3Kβ (p110β/p85α) (Homo sapiens, UniProt P42338); assay: cell-free PI3K HTRF assay, PI3Kβ
PI3Kβ (p110β/p85α), sequence (P42338 whole entry): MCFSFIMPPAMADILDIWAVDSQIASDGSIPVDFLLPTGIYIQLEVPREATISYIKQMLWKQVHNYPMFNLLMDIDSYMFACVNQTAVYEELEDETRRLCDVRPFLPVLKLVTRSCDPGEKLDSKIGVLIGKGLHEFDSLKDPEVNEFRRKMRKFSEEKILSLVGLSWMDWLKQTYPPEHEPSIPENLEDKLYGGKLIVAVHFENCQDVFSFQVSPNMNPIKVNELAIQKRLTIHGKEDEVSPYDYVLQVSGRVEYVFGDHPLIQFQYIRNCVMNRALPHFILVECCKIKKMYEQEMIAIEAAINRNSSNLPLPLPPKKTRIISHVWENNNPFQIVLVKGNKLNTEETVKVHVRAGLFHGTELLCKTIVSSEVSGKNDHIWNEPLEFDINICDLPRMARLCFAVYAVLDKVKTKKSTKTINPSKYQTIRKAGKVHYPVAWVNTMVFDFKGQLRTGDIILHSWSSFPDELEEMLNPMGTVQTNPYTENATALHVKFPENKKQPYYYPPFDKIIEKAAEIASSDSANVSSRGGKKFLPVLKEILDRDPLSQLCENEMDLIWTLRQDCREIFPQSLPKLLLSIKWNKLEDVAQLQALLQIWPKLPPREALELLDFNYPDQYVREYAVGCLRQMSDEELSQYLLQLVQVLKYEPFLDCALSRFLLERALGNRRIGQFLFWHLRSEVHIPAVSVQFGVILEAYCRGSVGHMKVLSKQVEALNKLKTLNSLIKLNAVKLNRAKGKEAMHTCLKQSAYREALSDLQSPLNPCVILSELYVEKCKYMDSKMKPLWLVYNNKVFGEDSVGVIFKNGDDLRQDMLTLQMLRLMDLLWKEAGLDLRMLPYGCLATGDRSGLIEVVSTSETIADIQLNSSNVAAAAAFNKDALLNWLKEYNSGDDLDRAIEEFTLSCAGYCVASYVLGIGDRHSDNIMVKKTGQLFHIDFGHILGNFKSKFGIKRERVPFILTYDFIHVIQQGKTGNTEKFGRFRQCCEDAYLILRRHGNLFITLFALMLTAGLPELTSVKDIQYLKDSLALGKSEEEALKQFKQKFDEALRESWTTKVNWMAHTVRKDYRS
PI3Kβ (p110β/p85α), sequence (P27986 whole entry partner): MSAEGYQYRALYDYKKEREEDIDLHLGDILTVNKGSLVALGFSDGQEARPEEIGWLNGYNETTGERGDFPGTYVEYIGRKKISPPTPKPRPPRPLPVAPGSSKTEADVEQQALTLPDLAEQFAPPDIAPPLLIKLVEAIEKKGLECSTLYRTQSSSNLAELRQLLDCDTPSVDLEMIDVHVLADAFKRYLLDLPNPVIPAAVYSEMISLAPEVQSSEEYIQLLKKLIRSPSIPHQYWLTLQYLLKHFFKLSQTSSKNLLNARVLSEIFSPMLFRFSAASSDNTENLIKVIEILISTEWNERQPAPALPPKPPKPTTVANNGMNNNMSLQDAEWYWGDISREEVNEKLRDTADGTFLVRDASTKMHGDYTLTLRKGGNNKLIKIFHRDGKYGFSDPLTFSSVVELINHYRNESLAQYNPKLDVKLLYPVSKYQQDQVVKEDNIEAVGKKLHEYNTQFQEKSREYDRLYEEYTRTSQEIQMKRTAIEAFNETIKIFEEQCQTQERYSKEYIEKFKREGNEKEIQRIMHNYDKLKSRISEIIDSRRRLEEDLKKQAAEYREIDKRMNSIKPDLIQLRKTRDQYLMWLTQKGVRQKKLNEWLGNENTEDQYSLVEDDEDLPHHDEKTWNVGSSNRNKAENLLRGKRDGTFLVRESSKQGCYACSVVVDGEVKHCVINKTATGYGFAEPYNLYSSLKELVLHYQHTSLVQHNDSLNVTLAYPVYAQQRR
Description: as §4, §5

PI3Kα (p110α/p85α) = PI3Kα (p110α/p85α) (Homo sapiens, UniProt P42336); assay: cell-free PI3K HTRF assay, PI3Kα
PI3Kα (p110α/p85α), sequence (P42336 whole entry): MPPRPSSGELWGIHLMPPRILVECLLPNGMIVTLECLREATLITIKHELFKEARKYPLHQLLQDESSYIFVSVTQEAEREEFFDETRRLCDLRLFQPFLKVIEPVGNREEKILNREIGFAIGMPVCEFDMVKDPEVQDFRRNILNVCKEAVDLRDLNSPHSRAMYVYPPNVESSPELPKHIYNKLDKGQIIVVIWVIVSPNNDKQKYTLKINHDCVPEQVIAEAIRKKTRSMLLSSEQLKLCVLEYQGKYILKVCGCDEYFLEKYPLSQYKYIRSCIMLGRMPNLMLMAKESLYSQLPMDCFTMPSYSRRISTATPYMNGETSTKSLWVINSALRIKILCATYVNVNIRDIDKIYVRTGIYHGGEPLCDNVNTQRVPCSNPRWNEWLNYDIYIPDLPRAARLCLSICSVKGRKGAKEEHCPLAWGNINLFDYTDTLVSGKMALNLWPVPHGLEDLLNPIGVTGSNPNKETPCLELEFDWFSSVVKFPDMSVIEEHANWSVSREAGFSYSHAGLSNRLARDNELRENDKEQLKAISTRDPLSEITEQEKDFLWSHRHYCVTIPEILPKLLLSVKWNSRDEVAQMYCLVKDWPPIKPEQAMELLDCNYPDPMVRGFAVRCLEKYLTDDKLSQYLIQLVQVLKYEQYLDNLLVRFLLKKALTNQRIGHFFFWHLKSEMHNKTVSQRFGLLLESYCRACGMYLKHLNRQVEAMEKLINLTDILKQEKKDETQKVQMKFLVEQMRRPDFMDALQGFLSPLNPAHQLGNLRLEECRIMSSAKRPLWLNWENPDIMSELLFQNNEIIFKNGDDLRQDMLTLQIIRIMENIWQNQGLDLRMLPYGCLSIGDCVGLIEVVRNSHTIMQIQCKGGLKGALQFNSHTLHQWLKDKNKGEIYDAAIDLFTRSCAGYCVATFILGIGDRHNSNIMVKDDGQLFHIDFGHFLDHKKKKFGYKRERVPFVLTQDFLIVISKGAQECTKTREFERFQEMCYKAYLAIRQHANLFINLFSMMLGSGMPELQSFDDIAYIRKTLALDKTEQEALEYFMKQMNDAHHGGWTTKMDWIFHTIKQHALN
PI3Kα (p110α/p85α), sequence (P27986 whole entry partner): as the sequence (P27986 whole entry partner) above
Description: as §4, §5

PI3Kδ (p110δ/p85α), sequence (O00329 whole entry): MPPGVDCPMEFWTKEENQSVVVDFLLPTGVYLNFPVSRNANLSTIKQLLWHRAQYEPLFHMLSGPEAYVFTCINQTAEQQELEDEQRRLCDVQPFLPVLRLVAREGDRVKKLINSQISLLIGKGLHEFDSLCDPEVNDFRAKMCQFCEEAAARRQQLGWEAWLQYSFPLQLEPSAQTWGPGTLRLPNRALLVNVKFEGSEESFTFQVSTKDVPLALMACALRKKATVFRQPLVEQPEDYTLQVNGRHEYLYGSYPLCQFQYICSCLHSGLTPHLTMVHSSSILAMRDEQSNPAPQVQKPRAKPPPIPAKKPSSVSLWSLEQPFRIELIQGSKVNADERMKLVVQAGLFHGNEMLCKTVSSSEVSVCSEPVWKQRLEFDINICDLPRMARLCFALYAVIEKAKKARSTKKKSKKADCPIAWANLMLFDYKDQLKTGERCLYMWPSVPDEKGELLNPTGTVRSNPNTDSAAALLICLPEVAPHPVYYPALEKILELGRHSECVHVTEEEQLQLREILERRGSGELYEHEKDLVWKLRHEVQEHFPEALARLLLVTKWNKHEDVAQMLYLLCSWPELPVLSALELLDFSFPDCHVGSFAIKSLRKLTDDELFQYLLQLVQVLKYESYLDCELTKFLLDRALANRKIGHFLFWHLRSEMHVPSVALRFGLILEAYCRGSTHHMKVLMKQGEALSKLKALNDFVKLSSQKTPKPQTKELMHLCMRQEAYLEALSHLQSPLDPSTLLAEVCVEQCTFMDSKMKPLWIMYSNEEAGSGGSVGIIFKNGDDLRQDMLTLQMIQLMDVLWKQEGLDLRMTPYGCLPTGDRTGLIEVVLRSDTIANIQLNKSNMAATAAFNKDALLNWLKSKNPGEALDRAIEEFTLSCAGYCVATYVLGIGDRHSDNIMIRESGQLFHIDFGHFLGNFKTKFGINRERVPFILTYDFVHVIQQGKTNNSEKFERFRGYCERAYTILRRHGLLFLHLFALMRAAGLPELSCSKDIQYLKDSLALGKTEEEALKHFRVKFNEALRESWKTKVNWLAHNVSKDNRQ
PI3Kδ (p110δ/p85α), sequence (P27986 whole entry partner): as the sequence (P27986 whole entry partner) above

SMILES	IC50 (PI3Kδ (p110δ/p85α)) [µM]	IC50 (BRD4 (BD1)) [µM]	activity against PI3K in words (class I PI3Ks)	IC50 (BRD4 (BD2)) [µM]	IC50 (PI3Kγ (p110γ)) [µM]	IC50 (PI3Kβ (p110β/p85α)) [µM]	IC50 (PI3Kα (p110α/p85α)) [µM]	overall activity in words (class I PI3Ks and BRD4) (class I PI3Ks)
Cc1noc(C)c1-c1nc2c(C)cccc2cc1C1CCCN1c1ncnc(N)c1C#N (stereo not drawn) [Compound 3, 4-amino-6-(2-(2-(3,5-dimethylisoxazol-4-yl)-8-methylquinolin-3-yl)pyrrolidin-1-yl)pyrimidine-5-carbonitrile]	0.000523							
Cc1nnc2ccc(N3CCN(c4nc5cc(F)ccc5cc4C4CCCN4c4ncnc(N)c4C#N)CC3)nn12 (stereo not drawn) [Compound 4, 4-amino-6-(2-(7-fluoro-2-(4-(3-methyl-[1,2,4]triazolo[4,3-b]pyridazin-6-yl)piperazin-1-yl)quinolin-3-yl)pyrrolidin-1-yl)pyrimidine-5-carbonitrile]	0.00066	8						
Cn1cc(-c2ccc3cc(C4CCCN4c4ncnc(N)c4C#N)c(N4CCOCC4)nc3c2)c2cc[nH]c2c1=O (stereo not drawn) [Compound 6]		0.0035	PI3K-inactive					
Cc1nnc2ccc(-c3ccc4cc(C5CCCN5c5ncnc(N)c5C#N)c(N5CCOCC5)nc4c3)nn12 (stereo not drawn) [Compound 7]		0.694						
Cc1cc(-c2ccc3cc(C4CCCN4c4ncnc(N)c4C#N)c(N4CCOCC4)nc3c2)cn(C)c1=O (stereo not drawn) [Compound 8]		0.028	PI3K-inactive	0.0077				
Cc1noc(C)c1-c1cccc2cc(C3CCCN3c3ncnc(N)c3C#N)c(N3CCOCC3)nc12 (stereo not drawn) [Compound 9]	0.00325	9.46						
Cc1nnc2ccc(-c3cccc4cc(C5CCCN5c5ncnc(N)c5C#N)c(N5CCOCC5)nc34)nn12 (stereo not drawn) [Compound 10]	0.0305	3.98						
Cc1cc(-c2cccc3cc(C4CCCN4c4ncnc(N)c4C#N)c(N4CCOCC4)nc23)cn(C)c1=O (stereo not drawn) [Compound 11]	0.00534	0.024		0.086	0.0566	0.567	0.247	
Cn1cc(-c2cccc3cc(C4CCCN4c4ncnc(N)c4C#N)c(N4CCOCC4)nc23)c2cc[nH]c2c1=O (stereo not drawn) [Compound 12]	0.005	0.035						
Cc1cc(-c2c(F)ccc3cc(C4CCCN4c4nc(N)nc(N)c4C#N)c(N4CCOCC4)nc23)cn(C)c1=O (stereo not drawn) [Compound 13]		0.799		0.0124	> 10			inactive
Cc1cc(-c2c(F)ccc3cc(C4CCCN4c4nc(N)nc5[nH]cnc45)c(N4CCOCC4)nc23)cn(C)c1=O (stereo not drawn) [Compound 14]		> 10		4.21				
Cc1cc(-c2c(F)ccc3cc(C4CCCN4c4ncnc(N)c4C#N)c(N4CCOCC4)nc23)cn(C)c1=O (stereo not drawn) [Compound 15]		1.25		0.68				
Cc1cc(-c2ccc(F)c3cc(C4CCCN4c4ncnc(N)c4C#N)c(N4CCOCC4)nc23)cn(C)c1=O (stereo not drawn) [Compound 16]				4.97				inactive
Cc1cc(-c2ccc(F)c3cc(C4CCCN4c4nc(N)nc(N)c4C#N)c(N4CCOCC4)nc23)cn(C)c1=O (stereo not drawn) [Compound 17]				0.745	> 10			
Cc1cc(-c2cccc3cc(C4CCCN4c4ncnc(N)c4C#N)c(N4CCCCC4)nc23)cn(C)c1=O (stereo not drawn) [Compound 18]	0.00189	0.0845		0.0852	0.0392	0.874	4.27	
Cc1cc(-c2cccc3cc(C4CCCN4c4ncnc(N)c4C#N)c(N(C)C)nc23)cn(C)c1=O (stereo not drawn) [Compound 19]	0.00304	0.0239		0.0193	0.0798	0.596	0.535	
Cn1cc(-c2cccc3cc(C4CCCN4c4nc(N)nc(N)c4C#N)c(N4CCOCC4)nc23)c2cc[nH]c2c1=O (stereo not drawn) [Compound 21]	0.00368	0.0248		0.0181	0.002	0.118	0.0537	
CC(C)Nc1nc2c(-c3cn(C)c(=O)c4[nH]ccc34)cccc2cc1C1CCCN1c1ncnc(N)c1C#N (stereo not drawn) [Compound 22]	0.0193	0.636		0.0745	0.171	3.55	0.544	
Cc1cc(-c2cccc3cc([C@@H]4CCCN4c4ncnc(N)c4C#N)c(N4CCOCC4)nc23)cn(C)c1=O [Compound 23]	0.00073	0.0267		0.0129	0.013	0.191	0.153	
Cn1cc(-c2cccc3cc([C@@H]4CCCN4c4nc(N)nc(N)c4C#N)c(N4CCOCC4)nc23)c2cc[nH]c2c1=O [Compound 24]	0.000938	0.0125		0.00907	0.00143	0.0539	0.0182	
Cn1cc(-c2cccc3cc(CNc4nc(N)nc(N)c4C#N)c(N4CCOCC4)nc23)c2cc[nH]c2c1=O [Compound 25]	0.00198	0.0553		0.0207	0.0167	0.0433	0.0205	
Cc1cc(-c2cccc3cc(C4CCCN4c4ncnc(N)c4C#N)c(-c4ccccc4)nc23)cn(C)c1=O (stereo not drawn) [Compound 28]	0.00156	0.446		0.148	0.0117	0.354	1.02	
Cc1cc(-c2cccc3cc(C4CCCN4c4ncnc(N)c4C#N)c(-c4cccnc4)nc23)cn(C)c1=O (stereo not drawn) [Compound 29]	0.00123	0.0379		0.0466	0.0192	0.263	0.867	
